Results as given in US20250066310A1, “MULTI-SUBSTITUTED URACIL DERIVATIVE AND PREPARATION METHOD THEREFOR AND APPLICATION THEREOF” (HANGZHOU ADAMERCK PHARMLABS INC., priority 2021, published 2025).
Marks after values point to notes of the source that are not given here.

Key:
[1] = test system: ICR mice; experiment: Effect on in vivo bleeding time in mice (tail cut); details: 100 mg/kg i.g. once daily for 4 days
Protocol: A normal control group (blank), positive control group (clopidogrel) and experimental groups were set up with 10 ICR mice (male, weighed about 25 g) in each group. Animals in each group were administered the corresponding drug solution by oral gavage (i.g.) at 0.1 ml/10 g body weight, and the blank control group was given distilled water, once daily for 4 days. On the 4th day, 1 h after the administration of the drug, the animals were anesthetized by intraperitoneal injection of sodium barbiturate at a dose of about 50 mg/kg, and 20 min later, the tails of the mice were cut at a distance of 3 mm from the tip of the tail, and at regular intervals, absorbent paper was used to dip the blood at the severed tails until no blood exuded, which was recorded as the bleeding time, and the results of the experiment were shown in Table 2.
Calculation equation for prolongation of bleeding time: […]

[2] = test system: rats with focal cerebral ischemia (MCAO)/reperfusion; experiment: Prophylactic administration, cerebral ischemia-reperfusion injury (MCAO/R) in rats; type: in vivo; details: Mean ± SD, n = 8; for Cerebral infarction rate (%): 3 days before MCAO/R, 24 h after reperfusion; for behavioral score / cerebral water content (%): MCAO/R
Protocol: Experimental methods: SD rats were randomly divided into 6 groups, set as sham group, model control group, positive control drug ozagrel (6 mg/kg) group, and test drug compound 1-1 high (9 mg/kg), medium (3 mg/kg), and low (1 mg/kg) dose group. The administered groups were preadministered by tail vein injection, and the sham and model control groups were given an equal volume of saline, once a day for 3 consecutive days. Ten minutes after the last administration, the rat MCAO/R model was established, and reperfusion was performed 2 h after ischemia. 24 h after MCAO reperfusion, neurobehavioral scores were performed to determine the neurological function of rats; 2,3,5-triphenyltetrazolium chloride (TTC) staining method was used to determine the rate of cerebral infarction and cerebral water content in rats.

[3] = test system: rats with myocardial ischemia-reperfusion injury; experiment: Myocardial ischemia-reperfusion injury caused by coronary artery ligation in rats; type: in vivo; details: x ± s, n = 8; for Pathological Score: myocardium
Protocol: Experimental Methods: A model of myocardial ischemia/reperfusion (MI/R) injury caused by coronary artery ligation was established in rats, and animals were grouped into high-dose (20 mg/kg), medium-dose (10 mg/kg), low-dose (5 mg/kg) of the test drug, clopidogrel (7.5 mg/kg), sham, and model groups. Equal volume of 0.5% CMC-Na was administered at 0.5 ml/100 g body weight in both sham and model groups. The drug was administered by gavage (i.g.) once a day for 5 consecutive days. Modeling was performed 30 min after the last administration, and after modeling, 8 successfully modeled rats were selected from each group for subsequent experiments. The sham group was placed a wire under the left anterior descending branch of the coronary artery according to the model preparation method without ligation, and the other groups were modeled according to the model preparation method. The effects of the test drugs on the cardiac infarction rate and the biochemical indexes of creatine kinase (CK), lactate dehydrogenase (LDH), malondialdehyde (MDA), and superoxide dismutase (SOD) in plasma were detected, and TTC staining of the heart was performed to detect the effects of the test drugs on the area of myocardial infarction in MI/R rats.

[4] = test system: rats with autologous thrombus and thrombin-induced cerebral ischemic injury; experiment: Ischemic brain injury induced by autologous thrombus and thrombin in rats (i.v., alone or with urokinase); type: in vivo, SD rats; details: n = 10
Protocol: Experimental Methods: A model of cerebral ischemic injury in SD rats was prepared by embolizing the middle cerebral artery of rats with autologous thrombus and thrombin via the external carotid artery to the internal carotid artery and the rats were randomly divided into 5 groups according to behavioral scores, a sham group (only the external carotid artery was isolated); a model-control group (saline was given to both groups in equal volume); urokinase (5000 U/kg) group; compound 1-1 ([…]) group; with 20 animals in each group (10 for detecting the rate of cerebral infarction, and the other 10 for pathological testing). Each group was administered slowly in the tail vein (1 ml per minute) 2 h after modeling, and the decrease in blood flow was monitored after thrombin injection and 120 min after administration. Neurobehavioral scoring was performed on the rats after 24 h to determine the neurological function of the rats; 2,3,5-triphenyltetrazolium chloride (TTC) staining was used to determine the rate of cerebral infarction and cerebral water content, and hematoxylin-eosin (HE) staining was used to observe the pathological damage of the brain in rats administered with the drug 2 h after cerebral ischemia.

[5] = test system: acute inflammatory response caused by ellagic acid (serum cytokines); experiment: Antibody microarray detection of serum factors in ellagic acid model mice; type: in vivo, ICR mice; design: TNFa / IL-6 / IL-1b / IL-5 / IL-13 / IL-1α / IL-1β / IL-2 / IL-3 / IL-4 / IFNg / CD40: unit not given here
Protocol: Experimental methods: ICR male mice, weighed about 25 g, were randomly divided into four groups: normal group, ellagic acid model group, 1-1 group, and 1-22 group, with four mice in each group. Mice in 1-1 group and 1-22 group were given 1-1, 100 mg/kg and 1-22, 100 mg/kg by gavage once a day respectively. 1 h after the third administration, except for the normal control group, the other three groups of mice were injected into the tail vein with 0.10 mL/10 g of 0.3% ellagic acid saline solution, and 1 h after injection, whole blood was collected from each animal, and centrifuged (3,000 rpm/min) for 10 min after 30 min of standing, and then centrifuged to obtain the serum. The serum from each group of animal was mixed in an EP tube, transported at −80° C., and sent for antibody microarray detection.

[6] = Table 16, pooled serum, 100 mg/kg by gavage
[7] = Table 17, pooled serum, 100 mg/kg by gavage
[8] = Table 18, pooled serum, 100 mg/kg by gavage
[9] = Table 19, pooled serum, 100 mg/kg by gavage

CCOC(=O)CCNC(=O)CCNc1cc(=O)n(C)c(=O)n1C [Compound 1-1]
Bleeding time prolongation (%) [1]: −8.89%
Cerebral infarction rate (%) ([2]; 1 mg/kg tail vein): 25.20 ± 9.71%
behavioral score ([2]; 1 mg/kg tail vein): 2.63 ± 0.74
cerebral water content (%) ([2]; 1 mg/kg tail vein): 81.81 ± 0.78%
Cerebral infarction rate (%) ([2]; 3 mg/kg tail vein): 22.74 ± 9.12%
behavioral score ([2]; 3 mg/kg tail vein): 2.00 ± 0.76
cerebral water content (%) ([2]; 3 mg/kg tail vein): 81.57 ± 0.87%
Cerebral infarction rate (%) ([2]; 9 mg/kg tail vein): 17.22 ± 9.35 %
behavioral score ([2]; 9 mg/kg tail vein): 1.50 ± 0.53
cerebral water content (%) ([2]; 9 mg/kg tail vein): 80.94 ± 0.92 %
Cardiac infarction rate (%) ([3]; 5 mg/kg i.g. once a day for 5 days): 12.12 ± 4.45 %
Cardiac infarction rate (%) ([3]; 10 mg/kg i.g. once a day for 5 days): 10.99 ± 2.39 %
Cardiac infarction rate (%) ([3]; 20 mg/kg i.g. once a day for 5 days): 7.27 ± 1.91**^ΔΔ %
Pathological Score ([3]; 5 mg/kg i.g.): 2.00 ± 0.53
Pathological Score ([3]; 10 mg/kg i.g.): 1.88 ± 0.83
Pathological Score ([3]; 20 mg/kg i.g.): 1.75 ± 0.71
CK (U/mL) ([3]; plasma, 5 mg/kg i.g.): 0.33 ± 0.15 U/mL
LDH (U/L) ([3]; plasma, 5 mg/kg i.g.): 5406.70 ± 458.93*^ΔΔ U/L
MDA ([3]; plasma, 5 mg/kg i.g.): 13.23 ± 2.89 nmol/mL
SOD (U/mL) ([3]; plasma, 5 mg/kg i.g.): 28.29 ± 1.24 U/mL
CK (U/mL) ([3]; plasma, 10 mg/kg i.g.): 0.27 ± 0.11 U/mL
LDH (U/L) ([3]; plasma, 10 mg/kg i.g.): 3732.06 ± 573.02**^ΔΔ U/L
MDA (nmol/mL) ([3]; plasma, 10 mg/kg i.g.): 5.47 ± 1.71**^ΔΔ nmol/mL
SOD (U/mL) ([3]; plasma, 10 mg/kg i.g.): 23.99 ± 2.80 U/mL
CK (U/mL) ([3]; plasma, 20 mg/kg i.g.): 0.08 ± 0.047 U/mL
LDH (U/L) ([3]; plasma, 20 mg/kg i.g.): 4366.03 ± 782.76**^ΔΔ U/L
MDA (nmol/mL) ([3]; plasma, 20 mg/kg i.g.): 8.77 ± 2.19**^ΔΔ nmol/mL
SOD (U/mL) ([3]; plasma, 20 mg/kg i.g.): 41.02 ± 2.33 U/mL
Cerebral infarction rate ([4]; 9 mg/kg i.v., TTC staining, mean ± S.D.): 14.99 ± 10.91
behavioral score ([4]; 9 mg/kg i.v., after 24 h, Mean ± SD): 1.70 ± 0.82
cerebral water content (%) ([4]; 9 mg/kg i.v., mean ± S.D.): 80.32 ± 0.97 %
Percentage decrease two hours after administration (%) ([4]; cerebral blood flow, 9 mg/kg i.v. 2 h after modeling, Mean ± SD): 29.24 ± 2.67 %
Percentage decrease after thrombin injection (%) ([4]; cerebral blood flow, before administration, 9 mg/kg group, Mean ± SD): 39.18 ± 4.75%
Pathology Score ([4]; cerebral ischemic areas, 9 mg/kg i.v., mean ± SD): 2.20 ± 1.01
IL-6 [5, 6]: 18,375.64*
RANTES/ccl5 [5, 6]: 2,825.89*
TNFa [5, 6]: 386.79
IL-1b ([5]; Table 16, pooled serum, 100 mg/kg by gavage once a day x3, 1 h after ellagic acid): 312.69
IL-1α [5, 7]: 1,118.99*
IL-1β [5, 7]: 312.69
IL-2 [5, 7]: 565.56
IL-3 [5, 7]: 1,106.55
IL-4 [5, 7]: 1,367.20
IL-5 [5, 7]: 285.74*
IL-6 [5, 7]: 18,375.64*
IL-13 [5, 7]: 800.30*
Eotaxin/CCL11 [5, 8]: 4,696.55
MCP1/CCL2 [5, 8]: 3,045.61
MIP-3a/CCL20 [5, 8]: 1,505.55*
RANTES/CCL5 [5, 8]: 2,825.89*
CD40 [5, 9]: 639.15
IFNg [5, 9]: 295.07*
number of down-regulated differential proteins ([5]; interleukin factors (Table 17), compared with the model group): four
